27 compounds from US10550105B2 (Ribon Therapeutics Inc., priority 2018, dated 2020) can be followed below.

For this assay, the target named is PARP7 (Homo sapiens (Human), UniProt Q7Z3E1). Description: Enzymatic assay for inhibition of PARP7: TR-FRET displacement of biotinylated Probe A from the TIPARP active site. Format: binding. Conditions: Table A-1. The essentials: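 Read-out: 665/615 nm emission ratio (ex 320 nm, 90 μs delay) indexing bound TIPARP–Probe A. Final incubation 30 min, 25° C; compounds in dose response. Curve fit of % inhibition vs concentration; Hill slope floating or fixed at 1 (3-parameter).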
Sequence of PARP7 (Q7Z3E1 whole entry): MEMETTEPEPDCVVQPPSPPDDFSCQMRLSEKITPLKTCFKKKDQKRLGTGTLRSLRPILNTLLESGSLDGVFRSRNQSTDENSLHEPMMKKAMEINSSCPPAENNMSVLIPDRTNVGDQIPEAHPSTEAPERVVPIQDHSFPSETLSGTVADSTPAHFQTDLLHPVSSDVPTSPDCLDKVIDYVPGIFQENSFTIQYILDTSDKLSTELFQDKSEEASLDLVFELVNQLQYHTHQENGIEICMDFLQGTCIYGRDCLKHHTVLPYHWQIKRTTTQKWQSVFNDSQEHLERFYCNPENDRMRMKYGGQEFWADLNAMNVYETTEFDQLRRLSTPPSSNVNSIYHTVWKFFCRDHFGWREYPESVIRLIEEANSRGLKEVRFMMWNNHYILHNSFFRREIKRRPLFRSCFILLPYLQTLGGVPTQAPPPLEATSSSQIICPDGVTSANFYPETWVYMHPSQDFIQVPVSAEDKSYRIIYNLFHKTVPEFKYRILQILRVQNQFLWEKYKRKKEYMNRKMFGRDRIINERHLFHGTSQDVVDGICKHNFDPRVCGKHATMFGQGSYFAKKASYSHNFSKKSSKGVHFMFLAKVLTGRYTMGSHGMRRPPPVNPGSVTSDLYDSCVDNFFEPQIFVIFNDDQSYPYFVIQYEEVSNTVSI

For the compound `N#Cc1ccc(N2CCN(C(=O)CCOC[C@@H]3CCCN3c3cn[nH]c(=O)c3C(F)(F)F)CC2)cc1` [Example 462, (S)-4-(4-(3-((1-(6-Oxo-5-(trifluoromethyl)-1,6-dihydropyridazin-4-yl)pyrrolidin-2-yl)methoxy)propanoyl)piperazin-1-yl)benzonitrile], the IC50 (as a rule, the midpoint of a concentration-inhibition curve) was under 100 nM. Take `N#Cc1cccnc1N1CCN(C(=O)CCOC[C@@H]2CCCN2c2cn[nH]c(=O)c2C(F)(F)F)CC1` [Example 463, (S)-2-(4-(3-((1-(6-Oxo-5-(trifluoromethyl)-1,6-dihydropyridazin-4-yl)pyrrolidin-2-yl)methoxy)propanoyl)piperazin-1-yl)nicotinonitrile]: the IC50 is under 100 nM. In turn, `N#Cc1ccc(N2CCN(C(=O)c3cccc(OC[C@@H]4C[C@@H](C#N)CN4c4cn[nH]c(=O)c4C(F)(F)F)c3)CC2)nc1` [Example 464, 6-(4-(3-(((2S,4R)-4-Cyano-1-(6-oxo-5-(trifluoromethyl)-1,6-dihydropyridazin-4-yl)pyrrolidin-2-yl)methoxy)benzoyl)piperazin-1-yl)nicotinonitrile] gave an IC50 of at least 1000 nM. Then `N#Cc1ccc(N2CCN(C(=O)c3ccc(OCCOCC4CCN(c5cn[nH]c(=O)c5C(F)(F)F)C4)cc3)CC2)nc1` (stereo not drawn) [Example 465, 6-(4-(4-(2-((1-(6-Oxo-5-(trifluoromethyl)-1,6-dihydropyridazin-4-yl)pyrrolidin-3-yl)methoxy)ethoxy)benzoyl)piperazin-1-yl)nicotinonitrile], with under 100 nM; and `N#Cc1ccc(N2CCN(C(=O)CCOCCOCC3CCN(c4cn[nH]c(=O)c4C(F)(F)F)C3)CC2)nc1` (stereo not drawn) [Example 466, 6-(4-(3-(2-((1-(6-Oxo-5-(trifluoromethyl)-1,6-dihydropyridazin-4-yl)pyrrolidin-3-yl)methoxy)ethoxy)propanoyl)piperazin-1-yl)nicotinonitrile], with under 100 nM; and `N#Cc1ccc(N2CCN(C(=O)c3cccc(OCCOCC4CCN(c5cn[nH]c(=O)c5C(F)(F)F)C4)c3)CC2)nc1` (stereo not drawn) [Example 467, 6-(4-(3-(2-((1-(6-Oxo-5-(trifluoromethyl)-1,6-dihydropyridazin-4-yl)pyrrolidin-3-yl)methoxy)ethoxy)benzoyl)piperazin-1-yl)nicotinonitrile], with under 100 nM.

In turn, `N#Cc1ccc(N2CCN(C(=O)CCOC[C@@H]3CCCN3c3cn[nH]c(=O)c3Cl)CC2)nc1` [Example 468, (S)-6-(4-(3-((1-(5-Chloro-6-oxo-1,6-dihydropyridazin-4-yl)pyrrolidin-2-yl)methoxy)propanoyl)piperazin-1-yl)nicotinonitrile] displayed a concentration for half-maximal inhibition (IC50) of under 100 nM.

In the case of `N#Cc1ccc(N2CCN(C(=O)c3cccc(OCC4CCN(c5cn[nH]c(=O)c5C(F)(F)F)C4)c3)CC2)nc1` (stereo not drawn) [Example 469, 6-(4-(3-((1-(6-Oxo-5-(trifluoromethyl)-1,6-dihydropyridazin-4-yl)pyrrolidin-3-yl)methoxy)benzoyl)piperazin-1-yl)nicotinonitrile], the IC50 was under 100 nM. Turning to `N#Cc1ccc(N2CCN(C(=O)c3cccc(OCCOC[C@@H]4CCN(c5cn[nH]c(=O)c5C(F)(F)F)C4)c3)CC2)nc1` [Example 470, (R)-6-(4-(3-(2-((1-(6-Oxo-5-(trifluoromethyl)-1,6-dihydropyridazin-4-yl)pyrrolidin-3-yl)methoxy)ethoxy)benzoyl)piperazin-1-yl)nicotinonitrile], the IC50 is under 100 nM. Then `N#Cc1ccc(N2CCN(C(=O)c3cccc(OCCOC[C@H]4CCN(c5cn[nH]c(=O)c5C(F)(F)F)C4)c3)CC2)nc1` [Example 471, (S)-6-(4-(3-(2-((1-(6-oxo-5-(trifluoromethyl)-1,6-dihydropyridazin-4-yl)pyrrolidin-3-yl)methoxy)ethoxy)benzoyl)piperazin-1-yl)nicotinonitrile], with under 100 nM; and `C#CCOC[C@@H]1CCCN1c1cn[nH]c(=O)c1C(F)(F)F` [Example 472, (S)-5-(2-((prop-2-yn-1-yloxy)methyl)pyrrolidin-1-yl)-4-(trifluoromethyl)pyridazin-3(2H)-one], with at least 1000 nM. `CC1CN(c2ccc(C#N)cn2)CCN1C(=O)CCOC[C@@H]1CCCN1c1cn[nH]c(=O)c1C(F)(F)F` (stereo partly drawn) [Example 473, 6-(3 -Methyl-4-(3-(((S)-1-(6-oxo-5-(trifluoromethyl)-1,6-dihydropyridazin-4-yl)pyrrolidin-2-yl)methoxy)propanoyl)piperazin-1-yl)nicotinonitrile] had an IC50 of under 100 nM. Then `N#Cc1cnc(N2CCN(C(=O)CCOC[C@@H]3CCCN3c3cn[nH]c(=O)c3C(F)(F)F)CC2)cn1` [Example 474, (S)-5-(4-(3-((1-(6-Oxo-5-(trifluoromethyl)-1,6-dihydropyridazin-4-yl)pyrrolidin-2-yl)methoxy)propanoyl)piperazin-1-yl)pyrazine-2-carbonitrile], with under 100 nM; and `N#Cc1ccc(N2CCN(C(=O)CCOC[C@@H]3CCCN3c3cn[nH]c(=O)c3C(F)(F)F)CC2)cn1` [Example 475, (S)-5-(4-(3-((1-(6-Oxo-5-(trifluoromethyl)-1,6-dihydropyridazin-4-yl)pyrrolidin-2-yl)methoxy)propanoyl)piperazin-1-yl)picolinonitrile], with under 100 nM; and `N#Cc1ncc(N2CCN(C(=O)CCOC[C@@H]3CCCN3c3cn[nH]c(=O)c3C(F)(F)F)CC2)cn1` [Example 476, (S)-5-(4-(3-((1-(6-Oxo-5-(trifluoromethyl)-1,6-dihydropyridazin-4-yl)pyrrolidin-2-yl)methoxy)propanoyl)piperazin-1-yl)pyrimidine-2-carbonitrile], with 100 to 1000 nM. `N#Cc1ccc(N2CCN(C(=O)c3ccc(OCC4CCN(c5cn[nH]c(=O)c5C(F)(F)F)C4)cc3)CC2)nc1` (stereo not drawn) [Example 477, 6-(4-(4-((1-(6-Oxo-5-(trifluoromethyl)-1,6-dihydropyridazin-4-yl)pyrrolidin-3-yl)methoxy)benzoyl)piperazin-1-yl)nicotinonitrile] returned an IC50 of under 100 nM. The figure for `N#Cc1ccc(N2CCN(C(=O)COCCOCC3CCN(c4cn[nH]c(=O)c4C(F)(F)F)C3)CC2)nc1` (stereo not drawn) [Example 478, 6-(4-(2-(2-((1-(6-Oxo-5-(trifluoromethyl)-1,6-dihydropyridazin-4-yl)pyrrolidin-3-yl)methoxy)ethoxy)acetyl)piperazin-1-yl)nicotinonitrile] is 100 to 1000 nM; for `N#Cc1ccc(N2CCN(C(=O)C34C5C6C3C3C4C5C63COC[C@@H]3CCCN3c3cn[nH]c(=O)c3C(F)(F)F)CC2)nc1` (stereo partly drawn) [Example 479, (S)-6-(4-(4-(((1-(6-Oxo-5-(trifluoromethyl)-1,6-dihydropyridazin-4-yl)pyrrolidin-2-yl)methoxy)methyl)cubane-1-carbonyl)piperazin-1-yl)nicotinonitrile] it is 100 to 1000 nM.

`Cc1c(N2CCC[C@H]2COCCC(=O)N2CCN(c3ccc(C#N)cn3)CC2)cn[nH]c1=O` [Example 480, (S)-6-(4-(3-((1-(5-Methyl-6-oxo-1,6-dihydropyridazin-4-yl)pyrrolidin-2-yl)methoxy)propanoyl)piperazin-1-yl)nicotinonitrile] returned an IC50 of under 100 nM. As to `O=C(CCOC[C@@H]1CCCN1c1cn[nH]c(=O)c1C(F)(F)F)N1CCN(c2ccc(Cl)cn2)CC1` [Example 481, (S)-5-(2-((3-(4-(5-Chloropyridin-2-yl)piperazin-1-yl)-3-oxopropoxy)methyl)pyrrolidin-1-yl)-4-(trifluoromethyl)pyridazin-3(2H)-one], the IC50 is under 100 nM. Then `O=C(CCOC[C@@H]1CCCN1c1cn[nH]c(=O)c1C(F)(F)F)N1CCN(c2ncc(Cl)cn2)CC1` [Example 482, (S)-5-(2-((3-(4-(5-Chloropyrimidin-2-yl)piperazin-1-yl)-3-oxopropoxy)methyl)pyrrolidin-1-yl)-4-(trifluoromethyl)pyridazin-3(2H)-one], with under 100 nM; and `CS(=O)(=O)c1ccc(N2CCN(C(=O)CCOC[C@@H]3CCCN3c3cn[nH]c(=O)c3C(F)(F)F)CC2)nc1` [Example 483, (S)-5-(2-((3-(4-(5-(Methylsulfonyl)pyridin-2-yl)piperazin-1-yl)-3-oxopropoxy)methyl)pyrrolidin-1-yl)-4-(trifluoromethyl)pyridazin-3(2H)-one], with under 100 nM; and `CC1(C)C[C@@H](COCCC(=O)N2CCN(c3ccc(C#N)cn3)CC2)N(c2cn[nH]c(=O)c2C(F)(F)F)C1` [Example 484, (S)-6-(4-(3-((4,4-Dimethyl-1-(6-oxo-5-(trifluoromethyl)-1,6-dihydropyridazin-4-yl)pyrrolidin-2-yl)methoxy)propanoyl)piperazin-1-yl)nicotinonitrile], with under 100 nM. `N#Cc1ccc(N2CCN(C(=O)CCOC[C@@H]3C[C@H](N)CN3c3cn[nH]c(=O)c3C(F)(F)F)CC2)nc1` [Example 485, 6-(4-(3-(((2S,4S)-4-Amino-1-(6-oxo-5-(trifluoromethyl)-1,6-dihydropyridazin-4-yl)pyrrolidin-2-yl)methoxy)propanoyl)piperazin-1-yl)nicotinonitrile]: the IC50 was under 100 nM. Compound `N#Cc1ccc(N2CCN(C(=O)CCOC[C@@H]3C[C@@H](N)CN3c3cn[nH]c(=O)c3C(F)(F)F)CC2)nc1` [Example 486, 6-(4-(3-(((2S,4R)-4-Amino-1-(6-oxo-5-(trifluoromethyl)-1,6-dihydropyridazin-4-yl)pyrrolidin-2-yl)methoxy)propanoyl)piperazin-1-yl)nicotinonitrile] displayed an IC50 of under 100 nM.

For `N#Cc1ccc(N2CCN(C(=O)CCO[C@H]3C[C@@H](CN)N(c4cn[nH]c(=O)c4C(F)(F)F)C3)CC2)nc1` [Example 487, 6-(4-(3-(((3S,5S)-5-(Aminomethyl)-1-(6-oxo-5-(trifluoromethyl)-1,6-dihydropyridazin-4-yl)pyrrolidin-3-yl)oxy)propanoyl)piperazin-1-yl)nicotinonitrile], the IC50 lay in the range of 100 to 1000 nM. Turning to `N#Cc1ccc(N2CCN(C(=O)c3cccc(OCc4cccc5c4CN(c4cn[nH]c(=O)c4C(F)(F)F)C5)c3)CC2)nc1` [Example 488, 6-(4-(3-((2-(6-Oxo-5-(trifluoromethyl)-1,6-dihydropyridazin-4-yl)isoindolin-4-yl)methoxy)benzoyl)piperazin-1-yl)nicotinonitrile], the IC50 was under 100 nM.
